Patent US7148237B2, “Nitrogen-containing heteroaryl compounds having HIV integrase inhibitory activity” (Shionogi & Co., Ltd., priority 2001, dated 2006)

How the values were obtained:
integrase = integrase (Human immunodeficiency virus type 1 group M subtype B, UniProt P04585); assay: Integrase inhibition assay (microtiter plate strand transfer, substrate DNA/target DNA, anti-digoxigenin ELISA readout); type: biochemical; conditions: concentration of the compound at percent inhibition 50%; OD at 405 nm
Experimental: The inhibitory activities against integrase of the compounds in the present invention have been determined by the assay described below.
Substrate DNA and target DNA, which sequences were indicated below, were synthesized by Amersham Pharmacia Biotech and dissolved in KTE buffer (composition: 100 mM KCl, 1 mM EDTA, 10 mM Tris-HCl (pH 7.6)) at concentration of 2 pmol/μl and 5 pmol/μl, respectively. The DNA solutions were annealed with each complement by slowly cooling after heating.
Streptavidin, obtained from Vector Laboratories, was dissolved in 0.1 M carbonate buffer (composition: 90 mM Na2CO3, 10 mM NaHCO3) at concentration of 40 μg/ml. After coating each well of microtiter plates (obtained from NUNC) with 50 μl of the above solution at 4° C. over night, each well was washed twice with PBS (composition: […], 0.27 mM KCl, 0.43 mM Na2HPO4, 0.14 mM KH2PO4) and blocked with 300 μL of 1% skim milk in PBS for 30 min. Additionally, each well was washed twice with PBS and added 50 μl of substrate DNA solution (2 pmol/μl). The microtiter plates were kept at room temperature for 30 min. Then, each well was washed twice with PBS and once with H2O.
Subsequently, in the each well prepared above were added 45 μl of the reaction buffer prepared from 12 μl of the buffer (composition: 150 mM MOPS (pH 7.2), 75 mM MnCl2, 50 mM 2-mercaptoethanol, 25% glycerol, 500 μg/ml bovine serum albumin-fraction V), 1 μl of target DNA (5 pmol/μl), and 32 μl of the distilled water. Additionally, 6 μl of either a test compound in DMSO or DMSO for positive control (PC) was mixed with the above reaction buffer, then 9 μl of an integrase solution (30 pmol) was added and mixed well. In the well of negative control (NC) was added 9 μl of the integrase dilution buffer (composition: 20 mM MOPS (pH7.2), 400 mM potassium glutamate, 1 mM EDTA, 0.1% NP-40, 20% glycerol, 1 mM DTT, 4 M urea).
The microtiter plates were incubated at 30° C. for 1 hour. The reaction solution was removed and each well was washed twice with PBS. Subsequently, each well of the microtiter plates was filled with 100 μl of anti-digoxigenin antibody labeled with alkaline phosphatase (Sheep Fab fragment: obtained from Boehringer) and incubated at 30° C. for 1 hour. Then, each well was washed twice with 0.05% Tween20 in PBS and once with PBS. Next, 150 μl of the Alkaline phosphatase reaction buffer (composition: 10 mM p-Nitrophenylphosphate (obtained from Vector Laboratories), 5 mM MgCl2, 100 mM NaCl, 100 mM Tris-HCl (pH 9.5)) was added in each well. The microtiter plates were incubated at 30° C. for 2 hours and the reaction was terminated by the addition of 50 μl of 1 N NaOH solution. The optical density (OD) at 405 nm of each well was measured and the percent inhibition was determined by the following expression. The percent inhibition (%)=100[1−{(C abs.−NC abs.)/(PC abs.−NC abs.)}] • C abs.; the OD of the well of the • NC abs.: the OD of the negative control (NC) • PC abs.: the OD of the positive control (PC)
When the percent inhibition (%) is X % at the concentration of x μg/ml and the percent inhibition (%) is Y % at the concentration of y μg/ml, one of which is more than 50% and the other is less than 50%, IC50 can be determined by the following expression. IC50(μg/ml)=x−{(X−50)(x−y)/(X−Y)}

Row | SMILES | melting point | IC50 (integrase) [µM]
1 | CCOC(=O)c1cc(CC)c2cc(Cc3ccc(F)cc3)cnc2c1O | 78 to 80 °C | 
2 | O=C(O)c1ccc2[nH]c(CCc3ccc(F)cc3)nc2c1O | 152 to 155 °C | 
3 | O=C(c1ccccc1)c1cc(C(=O)O)c2cc(Cc3ccc(F)cc3)cnc2c1O | 220 to 223 °C | 
4 | COC(=O)c1cc(C(=O)Nc2ccccn2)c2cc(Cc3ccc(F)cc3)cnc2c1O | 190 to 194 °C | 
5 | CCn1c(C)nc2c(O)c(-c3ncc(Cc4ccc(F)cc4)o3)ccc21 | 150 to 151 °C | 
6 | O=C(c1ccc(Cc2ccc(F)cc2)o1)c1cc(Cl)c2cccnc2c1O | 126 to 128 °C | 
7 | COC(=O)c1cc(Cl)c2[nH]c(Cc3ccc(F)cc3)nc2c1O [Compound I-1] | 257 to 260 °C | 1.61
8 | COC(=O)c1cc(Cl)c2c(nc(Cc3ccc(F)cc3)n2C)c1O [Compound I-6] | 198 to 201 °C | 1.27
9 | O=C(c1cc(Cl)c2[nH]c(Cc3ccc(F)cc3)nc2c1O)N1CCCC1 [Compound I-20] | 268 to 272 °C (dec.) | 2.03
10 | O=C(c1nccs1)c1ccc2[nH]c(Cc3ccc(F)cc3)nc2c1O [Compound I-27] | 239 to 240 °C | 0.538
11 | Cc1nc2c(O)c(-c3nnc(Cc4ccccc4)o3)cc(Cl)c2[nH]1 [Compound I-35] | 255 to 257 °C | 0.704
12 | Cc1nc2c(O)c(-c3nnc(COc4ccccc4)o3)cc(Cl)c2[nH]1 [Compound I-37] | 266 to 268 °C | 1.54
13 | O=C(c1ccc(Sc2ccc(F)cc2)o1)c1cc(Cl)c2cccnc2c1O [Compound I-63] | 120 to 122 °C | 1.05
14 | O=C(O)c1cc(Cl)c2cc(Cc3ccc(F)cc3)cnc2c1O [Compound I-65] | 222 to 224 °C | 0.332
